Measured values reported in PubChem BioAssay (NCI).
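48-hour exposure; five concentrations; linearly interpolated endpoints. Definition used: TGI = concentration required for complete inhibition of growth.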

Assays:
Experiment in all cases: NCI-60 cell line screen, 48 h
OVCAR-4 ovarian = test system: OVCAR-4 ovarian
ACHN renal = test system: ACHN renal
MCF7 breast = test system: MCF7 breast
SNB-19 CNS = test system: SNB-19 CNS
M14 melanoma = test system: M14 melanoma
SF-539 CNS = test system: SF-539 CNS
HOP-62 NSCLC = test system: HOP-62 NSCLC
MALME-3M melanoma = test system: MALME-3M melanoma
SF-295 CNS = test system: SF-295 CNS
MDA-N = test system: MDA-N
UACC-257 melanoma = test system: UACC-257 melanoma
EKVX NSCLC = test system: EKVX NSCLC
SF-268 CNS = test system: SF-268 CNS
LOX IMVI melanoma = test system: LOX IMVI melanoma
NCI-H522 lung = test system: NCI-H522 lung
NCI-H226 lung = test system: NCI-H226 lung
HT29 colon = test system: HT29 colon
SR leukemia = test system: SR leukemia
A498 renal = test system: A498 renal
HL-60(TB) leukemia = test system: HL-60(TB) leukemia
A549 NSCLC = test system: A549 NSCLC
UACC-62 melanoma = test system: UACC-62 melanoma
BT-549 breast = test system: BT-549 breast
SW-620 colon = test system: SW-620 colon
HCT-116 colon = test system: HCT-116 colon
MDA-MB-435 = test system: MDA-MB-435
HS 578T breast = test system: HS 578T breast
U251 CNS = test system: U251 CNS
MDA-MB-231 breast = test system: MDA-MB-231 breast
786-0 renal = test system: 786-0 renal
RXF 393 renal = test system: RXF 393 renal
HOP-92 NSCLC = test system: HOP-92 NSCLC
SNB-75 CNS = test system: SNB-75 CNS
TK-10 renal = test system: TK-10 renal
NCI/ADR-RES ovarian = test system: NCI/ADR-RES ovarian
CAKI-1 renal = test system: CAKI-1 renal
NCI-H23 lung = test system: NCI-H23 lung
UO-31 renal = test system: UO-31 renal
OVCAR-5 ovarian = test system: OVCAR-5 ovarian
MOLT-4 leukemia = test system: MOLT-4 leukemia
OVCAR-3 ovarian = test system: OVCAR-3 ovarian
RPMI-8226 leukemia = test system: RPMI-8226 leukemia
KM12 colon = test system: KM12 colon
SK-OV-3 ovarian = test system: SK-OV-3 ovarian
OVCAR-8 ovarian = test system: OVCAR-8 ovarian
K-562 leukemia = test system: K-562 leukemia
NCI-H460 lung = test system: NCI-H460 lung
PC-3 prostate = test system: PC-3 prostate
HCT-15 colon = test system: HCT-15 colon
CCRF-CEM leukemia = test system: CCRF-CEM leukemia
SK-MEL-28 melanoma = test system: SK-MEL-28 melanoma
SK-MEL-2 melanoma = test system: SK-MEL-2 melanoma
SK-MEL-5 melanoma = test system: SK-MEL-5 melanoma
IGROV1 ovarian = test system: IGROV1 ovarian
COLO 205 colon = test system: COLO 205 colon
SN12C renal = test system: SN12C renal
HCC-2998 colon = test system: HCC-2998 colon
T-47D breast = test system: T-47D breast

COc1ccc(-c2c(N)n(-c3nc4ccccc4s3)c(=O)c3cc([N+](=O)[O-])ccc23)cc1
TGI (OVCAR-4 ovarian): 68.4 µM | TGI (ACHN renal): 69.9 µM | TGI (MCF7 breast): > 100 µM | TGI (SNB-19 CNS): > 100 µM | TGI (M14 melanoma): 47.6 µM | TGI (SF-539 CNS): 19.6 µM | TGI (HOP-62 NSCLC): 27 µM | TGI (MALME-3M melanoma): 93.7 µM | TGI (SF-295 CNS): 97.1 µM | TGI (MDA-N): > 100 µM | TGI (UACC-257 melanoma): > 100 µM | TGI (EKVX NSCLC): 44.6 µM | TGI (SF-268 CNS): 56.6 µM | TGI (LOX IMVI melanoma): 48.3 µM | TGI (NCI-H522 lung): 23.5 µM | TGI (NCI-H226 lung): > 100 µM | TGI (HT29 colon): > 100 µM | TGI (SR leukemia): > 100 µM | TGI (A498 renal): > 100 µM | TGI (HL-60(TB) leukemia): > 100 µM | TGI (A549 NSCLC): 23.3 µM | TGI (UACC-62 melanoma): > 100 µM | TGI (BT-549 breast): > 100 µM | TGI (SW-620 colon): > 100 µM | TGI (HCT-116 colon): > 100 µM | TGI (MDA-MB-435): > 100 µM | TGI (HS 578T breast): 37.3 µM | TGI (U251 CNS): 35.2 µM | TGI (MDA-MB-231 breast): 48.7 µM | TGI (786-0 renal): 16.2 µM | TGI (RXF 393 renal): 30.9 µM | TGI (HOP-92 NSCLC): > 100 µM | TGI (SNB-75 CNS): 24.7 µM | TGI (TK-10 renal): > 100 µM | TGI (NCI/ADR-RES ovarian): 78.1 µM | TGI (CAKI-1 renal): 48.5 µM | TGI (NCI-H23 lung): 45.2 µM | TGI (UO-31 renal): 46.7 µM | TGI (OVCAR-5 ovarian): 56.7 µM | TGI (MOLT-4 leukemia): 49.2 µM | TGI (OVCAR-3 ovarian): 35.4 µM | TGI (RPMI-8226 leukemia): > 100 µM | TGI (KM12 colon): > 100 µM | TGI (SK-OV-3 ovarian): 33 µM | TGI (OVCAR-8 ovarian): 23.2 µM | TGI (K-562 leukemia): > 100 µM | TGI (NCI-H460 lung): 32.5 µM | TGI (PC-3 prostate): > 100 µM | TGI (HCT-15 colon): > 100 µM | TGI (CCRF-CEM leukemia): > 100 µM | TGI (SK-MEL-28 melanoma): > 100 µM | TGI (SK-MEL-2 melanoma): > 100 µM

Nc1c2c(nc3ccccc13)CCCCCC2
TGI (ACHN renal): 86.3 µM | TGI (MCF7 breast): > 100 µM | TGI (SF-539 CNS): 32.3 µM | TGI (MALME-3M melanoma): 32.6 µM | TGI (MDA-N): 30.4 µM | TGI (UACC-257 melanoma): 31.1 µM | TGI (SF-268 CNS): > 100 µM | TGI (LOX IMVI melanoma): 31.8 µM | TGI (NCI-H522 lung): 56.3 µM | TGI (NCI-H226 lung): > 100 µM | TGI (SK-MEL-5 melanoma): 31.3 µM | TGI (IGROV1 ovarian): > 100 µM | TGI (SR leukemia): 38 µM | TGI (A498 renal): 74 µM | TGI (HL-60(TB) leukemia): 31.6 µM | TGI (UACC-62 melanoma): 33.7 µM | TGI (BT-549 breast): > 100 µM | TGI (SW-620 colon): 50.1 µM | TGI (HCT-116 colon): 64.1 µM | TGI (HS 578T breast): > 100 µM | TGI (U251 CNS): 80.2 µM | TGI (MDA-MB-231 breast): 42.5 µM | TGI (786-0 renal): 30 µM | TGI (HOP-92 NSCLC): 32.1 µM | TGI (COLO 205 colon): 30.6 µM | TGI (TK-10 renal): 35.1 µM | TGI (NCI/ADR-RES ovarian): > 100 µM | TGI (NCI-H23 lung): > 100 µM | TGI (MOLT-4 leukemia): 85 µM | TGI (RPMI-8226 leukemia): 43.8 µM | TGI (OVCAR-8 ovarian): > 100 µM | TGI (SN12C renal): > 100 µM | TGI (HCC-2998 colon): 27.4 µM | TGI (K-562 leukemia): 69 µM | TGI (NCI-H460 lung): 38.9 µM | TGI (PC-3 prostate): > 100 µM | TGI (HCT-15 colon): > 100 µM | TGI (CCRF-CEM leukemia): 52.4 µM | TGI (SK-MEL-28 melanoma): 30 µM | TGI (SK-MEL-2 melanoma): 29.2 µM

NCCCN(CCCCN(CCCN)Cc1ccc2ccccc2c1)Cc1ccc2ccccc2c1
TGI (OVCAR-4 ovarian): 4.09 µM | TGI (ACHN renal): 3.3 µM | TGI (SNB-19 CNS): 2.86 µM | TGI (T-47D breast): 5.03 µM | TGI (M14 melanoma): 3.63 µM | TGI (MALME-3M melanoma): 3.39 µM | TGI (SF-295 CNS): 3.7 µM | TGI (MDA-N): 3.3 µM | TGI (EKVX NSCLC): 3.37 µM | TGI (SF-268 CNS): 2.57 µM | TGI (IGROV1 ovarian): 3.3 µM | TGI (HT29 colon): 3.11 µM | TGI (A498 renal): 5.06 µM | TGI (HL-60(TB) leukemia): > 100 µM | TGI (A549 NSCLC): 3.2 µM | TGI (BT-549 breast): 3.89 µM | TGI (MDA-MB-435): 4.27 µM | TGI (HS 578T breast): 3.06 µM | TGI (MDA-MB-231 breast): 11.8 µM | TGI (HOP-92 NSCLC): 5.75 µM | TGI (SNB-75 CNS): 3.89 µM | TGI (COLO 205 colon): 5.22 µM | TGI (TK-10 renal): 5.05 µM | TGI (NCI/ADR-RES ovarian): 54.3 µM | TGI (CAKI-1 renal): 3.15 µM | TGI (NCI-H23 lung): 3.34 µM | TGI (UO-31 renal): 6.1 µM | TGI (OVCAR-5 ovarian): 3.44 µM | TGI (MOLT-4 leukemia): 4.74 µM | TGI (RPMI-8226 leukemia): 6.88 µM | TGI (KM12 colon): 3.32 µM | TGI (SK-OV-3 ovarian): 3.39 µM | TGI (SN12C renal): 3.08 µM | TGI (HCC-2998 colon): 9.37 µM | TGI (K-562 leukemia): > 100 µM | TGI (NCI-H460 lung): 3.43 µM | TGI (HCT-15 colon): 13.1 µM | TGI (CCRF-CEM leukemia): > 100 µM
